These results are taken from patent US20140155376A1, “PYRROLOPYRAZINE KINASE INHIBITORS” (Hoffmann-La Roche Inc., priority 2010, published 2014).

T1 sequence (P52333 810-1124): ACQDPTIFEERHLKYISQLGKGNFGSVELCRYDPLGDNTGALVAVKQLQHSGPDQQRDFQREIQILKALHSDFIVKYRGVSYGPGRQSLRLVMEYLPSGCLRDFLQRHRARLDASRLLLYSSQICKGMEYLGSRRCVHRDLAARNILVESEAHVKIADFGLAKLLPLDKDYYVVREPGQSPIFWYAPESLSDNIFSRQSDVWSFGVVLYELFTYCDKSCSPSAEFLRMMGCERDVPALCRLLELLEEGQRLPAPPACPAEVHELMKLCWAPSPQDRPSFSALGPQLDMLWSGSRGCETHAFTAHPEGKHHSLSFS

The first assay has as its target T1, JAK3 (recombinant human kinase domain; h-jak3(810-1124)) (Homo sapiens, UniProt P52333).
T1 construct: h-jak3(810- 1124)-sf9-c; made in house; host or cells: Sf9 insect cells
The experiment in a line: Determination of IC50 of Janus Kinase (JAK) inhibition: JAK3, radioactive end-point assay with 33P-ATP. The class given is biochemical.
Details: not given
Take `CC(C)NC(=O)c1c[nH]c2ncc(Oc3ccc4c(c3)C=CC4)nc12` [Example I-302, 2-(1H-Inden-5-yloxy)-5H-pyrrolo[2,3-b]pyrazine-7-carboxylic acid isopropylamide]: the half-maximal inhibitory concentration (IC50) (in general, the concentration that gives 50% inhibition) was determined as 157 nM.

Still in this assay, the particulars now being: JAK3 kinase domain; ATP 1.5 uM, peptide 50 uM, 20 minutes, room temperature, 10% DMSO; read-out: Ic50 h-jak3(810-1124)-sf9-c:no additive.
As to `COC[C@H](NC(=O)c1c[nH]c2ncc(C3CC3)nc12)C(C)(C)C` [Example I-64, 2-Cyclopropyl-5H-pyrrolo[2,3-b]pyrazine-7-carboxylic acid ((R)-1-methoxymethyl-2,2-dimethyl-propyl)-amide], the 50% inhibitory concentration (IC50) worked out at 35.1 nM. The same measure, in the same setting: with `CCNC(=O)c1c[nH]c2ncc(Oc3cccc(OC)c3)nc12` [Example I-264, 2-(3-Methoxy-phenoxy)-5H-pyrrolo[2,3-b]pyrazine-7-carboxylic acid ethylamide] the figure was 810 nM. Same read-out and setting: with `C[C@H](NC(=O)c1c[nH]c2ncc(C3CC3)nc12)C1(C#N)CCCCC1` [Example I-118, 2-Cyclopropyl-5H-pyrrolo[2,3-b]pyrazine-7-carboxylic acid [(S)-1-(1-cyano-cyclohexyl)-ethyl]-amide] the figure was 150 nM; with `CC(NC(=O)c1c[nH]c2ncc(C3CC3)nc12)c1ccccn1` (stereo not shown) [Example I-70, 2-Cyclopropyl-5H-pyrrolo[2,3-b]pyrazine-7-carboxylic acid (1-pyridin-2-yl-ethyl)-amide], 87 nM. Same read-out and setting: then `CC[C@@H](NC(=O)c1c[nH]c2ncc(C3CC3)nc12)C(C)(C)O` [Example I-44, 2-Cyclopropyl-5H-pyrrolo[2,3-b]pyrazine-7-carboxylic acid ((R)-1-ethyl-2-hydroxy-2-methyl-propyl)-amide], with 46 nM. On to `C[C@H](NC(=O)c1c[nH]c2ncc(-c3ccc(C(=O)N4CC(CO)(CO)C4)s3)nc12)C(C)(C)C` [Example I-218, 2-[5-(3,3-Bis-hydroxymethyl-azetidine-1-carbonyl)-thiophen-2-yl]-5H-pyrrolo[2,3-b]pyrazine-7-carboxylic acid ((S)-1,2,2-trimethyl-propyl)-amide], for which the IC50 came to 0.13 nM. With `C[C@@H](NC(=O)c1c[nH]c2ncc(Oc3ccccc3)nc12)C1CCCCC1` [Example I-129, 2-Phenoxy-5H-pyrrolo[2,3-b]pyrazine-7-carboxylic acid ((R)-1-cyclohexyl-ethyl)-amide], the IC50 came to 222 nM. On the same count and under the same terms, with `O=C(N[C@H](C1CC1)C1(O)CCCC1)c1c[nH]c2ncc(C3CC3)nc12` [Example I-104, 2-Cyclopropyl-5H-pyrrolo[2,3-b]pyrazine-7-carboxylic acid [(R)-cyclopropyl-(1-hydroxy-cyclopentyl)-methyl]-amide] the figure was 16.3 nM; with `C[C@H](NC(=O)c1c[nH]c2ncc(-c3ccc(C(=O)N4CCCCC4)s3)nc12)C(C)(C)C#N` [Example I-224, 2-[5-(Piperidine-1-carbonyl)-thiophen-2-yl]-5H-pyrrolo[2,3-b]pyrazine-7-carboxylic acid ((S)-2-cyano-1,2,2-trimethyl-ethyl)-amide], 0.36 nM. Still for that read-out and setting: then `N#CC(NC(=O)c1c[nH]c2ncc(C3CC3)nc12)C1CC1` (stereo not shown) [Example I-90, 2-Cyclopropyl-5H-pyrrolo[2,3-b]pyrazine-7-carboxylic acid (cyano-cyclopropyl-methyl)-amide], with 14.5 nM; and `CC(NC(=O)c1c[nH]c2ncc(Oc3ccc(F)cc3F)nc12)C1CC1` (stereo not shown) [Example I-105, 2-(2,4-Difluoro-phenoxy)-5H-pyrrolo[2,3-b]pyrazine-7-carboxylic acid (1-cyclopropyl-ethyl)-amide], with 103 nM; and `CC(C)c1cnc2[nH]cc(C(=O)N[C@@H](C)C(C)(C)O)c2n1` [Example I-5, 2-Isopropyl-5H-pyrrolo[2,3-b]pyrazine-7-carboxylic acid ((S)-2-hydroxy-1,2-dimethyl-propyl)-amide], with 302 nM.

With `C[C@@H](NC(=O)c1c[nH]c2ncc(-c3cccs3)nc12)C(C)(C)O` [Example I-103, 2-Thiophen-2-yl-5H-pyrrolo[2,3-b]pyrazine-7-carboxylic acid ((R)-2-hydroxy-1,2-dimethyl-propyl)-amide], the IC50 was 7.25 nM. Same read-out and setting: with `CC(C)NC(=O)c1c[nH]c2ncc(Oc3ccc4cc[nH]c4c3)nc12` [Example I-272, 2-(1H-Indol-6-yloxy)-5H-pyrrolo[2,3-b]pyrazine-7-carboxylic acid isopropylamide] the figure was 29.3 nM; with `C[C@H](NC(=O)c1c[nH]c2ncc(C3=CCCC3)nc12)C(C)(C)O` [Example I-2, 2-Cyclopent-1-enyl-5H-pyrrolo[2,3-b]pyrazine-7-carboxylic acid ((S)-2-hydroxy-1,2-dimethyl-propyl)-amide], 5.23 nM.

Turning to `CCNC(=O)c1ccc(-c2cnc3[nH]cc(C(=O)N[C@@H](C)C(C)(C)C)c3n2)s1` [Example I-155, 2-(5-Ethylcarbamoyl-thiophen-2-yl)-5H-pyrrolo[2,3-b]pyrazine-7-carboxylic acid ((S)-1,2,2-trimethyl-propyl)-amide], the IC50 is 0.32 nM. Still for that read-out and setting: then `C[C@H](NC(=O)c1c[nH]c2ncc(-c3ccc(C(=O)NCc4ccccn4)s3)nc12)C(C)(C)C` [Example I-166, 2-{5-[(Pyridin-2-ylmethyl)-carbamoyl]-thiophen-2-yl}-5H-pyrrolo[2,3-b]pyrazine-7-carboxylic acid ((S)-1,2,2-trimethyl-propyl)-amide], with 0.11 nM. With `CC(NC(=O)c1c[nH]c2ncc(Oc3ccc(F)cc3)nc12)C1CC1` (stereo not shown) [Example I-113, 2-(4-Fluoro-phenoxy)-5H-pyrrolo[2,3-b]pyrazine-7-carboxylic acid (1-cyclopropyl-ethyl)-amide], the IC50 is 35.7 nM. With `C[C@H](NC(=O)c1c[nH]c2ncc(-c3ccc(C(=O)NCC#N)s3)nc12)C(C)(C)C` [Example I-172, 2-[5-(Cyanomethyl-carbamoyl)-thiophen-2-yl]-5H-pyrrolo[2,3-b]pyrazine-7-carboxylic acid ((S)-1,2,2-trimethyl-propyl)-amide], the concentration for half-maximal inhibition (IC50) worked out at 0.14 nM.

Regarding `CC(NC(=O)c1c[nH]c2ncc(C3CC3)nc12)C(C)(C)CO` (stereo not shown) [Example I-71, 2-Cyclopropyl-5H-pyrrolo[2,3-b]pyrazine-7-carboxylic acid (3-hydroxy-1,2,2-trimethyl-propyl)-amide], the half-inhibitory concentration (IC50) was 3.8 nM. The same measure, in the same setting: with `C[C@@H](CO)NC(=O)c1c[nH]c2ncc(C3CC3)nc12` [Example I-57, 2-Cyclopropyl-5H-pyrrolo[2,3-b]pyrazine-7-carboxylic acid ((S)-2-hydroxy-1-methyl-ethyl)-amide] the figure was 217 nM; with `C[C@H](NC(=O)c1c[nH]c2ncc(-c3ccc(C(=O)NC(C)(C)C)s3)nc12)C(C)(C)C` [Example I-157, 2-(5-tert-Butylcarbamoyl-thiophen-2-yl)-5H-pyrrolo[2,3-b]pyrazine-7-carboxylic acid ((S)-1,2,2-trimethyl-propyl)-amide], 0.43 nM; with `C[C@H](NC(=O)c1c[nH]c2ncc(-c3cnn(C)c3)nc12)C(C)(C)C` [Example I-141, 2-(1-Methyl-1H-pyrazol-4-yl)-5H-pyrrolo[2,3-b]pyrazine-7-carboxylic acid ((S)-1,2,2-trimethyl-propyl)-amide], 0.19 nM. Still for that read-out and setting: with `CCNC(=O)c1c[nH]c2ncc(Oc3cccc4c3CCCC4)nc12` [Example I-259] the figure was 6710 nM; with `CCc1cnc2[nH]cc(C(=O)NCC(C)(C)CO)c2n1` [Example I-39, 2-Ethyl-5H-pyrrolo[2,3-b]pyrazine-7-carboxylic acid (3-hydroxy-2,2-dimethyl-propyl)-amide], 302 nM; with `C[C@H](CO)NC(=O)c1ccc(-c2cnc3[nH]cc(C(=O)N[C@@H](C)C(C)(C)C)c3n2)s1` [Example I-169, 2-[5-((R)-2-Hydroxy-1-methyl-ethylcarbamoyl)-thiophen-2-yl]-5H-pyrrolo[2,3-b]pyrazine-7-carboxylic acid ((S)-1,2,2-trimethyl-propyl)-amide], 0.29 nM.

In the case of `C[C@H](NC(=O)c1c[nH]c2ncc(-c3ccc(C(=O)N4C5CCC4CC5)s3)nc12)C(C)(C)C` [Example I-177, 2-[5-(7-Aza-bicyclo[2.2.1]heptane-7-carbonyl)-thiophen-2-yl]-5H-pyrrolo[2,3-b]pyrazine-7-carboxylic acid ((S)-1,2,2-trimethyl-propyl)-amide], the IC50 is 0.32 nM.

Regarding `CC(CN(C)C)NC(=O)c1c[nH]c2ncc(C3CC3)nc12` (stereo not shown) [Example I-27, 2-Cyclopropyl-5H-pyrrolo[2,3-b]pyrazine-7-carboxylic acid (2-dimethylamino-1-methyl-ethyl)-amide], the IC50 is 934 nM. On the same count and under the same terms, with `CC(NC(=O)c1c[nH]c2ncc(C3CC3)nc12)C1CCCC1` (stereo not shown) [Example I-95, 2-Cyclopropyl-5H-pyrrolo[2,3-b]pyrazine-7-carboxylic acid (1-cyclopentyl-ethyl)-amide] the figure was 9.99 nM; with `C[C@H](Cc1ccccc1)NC(=O)c1ccc(-c2cnc3[nH]cc(C(=O)N[C@@H](C)C(C)(C)C)c3n2)s1` [Example I-170, 2-[5-((R)-1-Methyl-2-phenyl-ethylcarbamoyl)-thiophen-2-yl]-5H-pyrrolo[2,3-b]pyrazine-7-carboxylic acid ((S)-1,2,2-trimethyl-propyl)-amide], 0.58 nM. For the compound `CC(C)(O)C(CCO)NC(=O)c1c[nH]c2ncc(C3CC3)nc12` (stereo not shown) [Example I-17, 2-Cyclopropyl-5H-pyrrolo[2,3-b]pyrazine-7-carboxylic acid [2-hydroxy-1-(2-hydroxy-ethyl)-2-methyl-propyl]-amide], the concentration for half-maximal inhibition (IC50) worked out at 84.5 nM. The same measure, in the same setting: then `C[C@H](NC(=O)c1c[nH]c2ncc(-c3ccc(C(=O)N[C@H](C)C4CC4)s3)nc12)C(C)(C)C` [Example I-162, 2-[5-((R)-1-Cyclopropyl-ethylcarbamoyl)-thiophen-2-yl]-5H-pyrrolo[2,3-b]pyrazine-7-carboxylic acid ((S)-1,2,2-trimethyl-propyl)-amide], with 0.32 nM; and `CC(C)NC(=O)c1c[nH]c2ncc(Oc3ccc4c(c3)[C@@H](O)CC4)nc12` [Example I-304, 2-((S)-3-Hydroxy-indan-5-yloxy)-5H-pyrrolo[2,3-b]pyrazine-7-carboxylic acid isopropylamide], with 155 nM.
